Test results taken from patent publication US20260284208A1, “SYSTEM” (Oxford University Innovation Limited, priority 2023, published 2026).

System: library of 8,380 IKZF3 degrons (ZF-eGFP/mCherry reporter) in Jurkat cells
Experiment: Pooled library screen (FACS, NGS, limma voom LogFC of positive vs negative read counts)
Assay type: cell-based, human
Experimental: A library of 8,380 IKZF3 degrons was cloned into pLVX-Sprout to create the eGFP/mCherry protein degradation reporter plasmid pool. A lentivirus pool was then generated using the Lenti-X lentiviral vector production method.
Jurkat cells were transduced at a multiplicity of infection of <0.3 with the lentivirus vector library in order to maximise the number of cells with a single integration. Transductions were carried out in 6 well TC-treated cell culture dishes (Falcon) with 3×10^6 cells per well. Cells were incubated for 2 days at 37° C. and 5% CO2 before the supernatant was removed and replaced with fresh media. 6 days post-transduction, mCherry+ cells were isolated via FACS using the FACS Aria Fusion (BD) in a buffer containing PBS (Gibco), 2 mM EDTA (Gibco), 25 mM HEPES (Sigma) and 1% BSA (Sigma). 8 days later, cells were treated with DMSO or a thalidomide analog for 18 hours at 37° C. and 5% CO2. mCherry+GFPlow and NOT(mCherry+GFPlow) cells were sorted by FACS using the FACS Aria Fusion (BD). DMSO treated cells were used to set the mCherry+GFPlow gate and dead cells were excluded from sorting by staining cells with 1 μg/mL DAPI (ThermoFisher). gDNA was isolated using the Maxwell RSC 48 (Promega). gDNA from cells that were unsorted and untreated were also isolated to determine the library representation on the day of compound treatment. Throughout the screen >600× coverage of the library was maintained. 3 biological replicates were carried out with a new transduction taking place each time.
A two-step PCR was used where the first PCR (PCR1) amplified the integrated degron sequence from gDNA and the second PCR (PCR2) added Illumina adaptors and barcodes to permit multiplexing. See Supp F for PCR1 and PCR2 primers. Q5 Hot Start High-Fidelity 2× Master Mix (New England Biolabs) was used for both PCRs. Sufficient gDNA was amplified in PCR1 in order to maintain >600× coverage and amplicons were purified using solid phase reversible immobilization (SPRI) beads (Beckman Coulter). Purified PCR1 products were analysed on the Tapestation 4200 (Agilent) to confirm purity prior to proceeding to PCR2. Sufficient PCR1 product was amplified in PCR2 in order to maintain >600× coverage and amplicons were run on a 2% agarose TAE gel. Target bands were excised and purified using the NucleoSpin Gel and PCR Clean-up Kit (Machery Nagel). Amplicons were analysed on the Tapestation 4200 and quantified using Qubit dsDNA HS kit (ThermoFisher). PCR products were pooled and sequenced as paired-reads on the NovaSeq (Illumina) using a SP2 200 cycles kit (Illumina).
Count distributions, percentage of read mapping, library coverage and replicate correlation per sample were assessed for QC purposes.
To carry out the library screen, we used the same plasmid construct as in our earlier flow cytometry assays, but pooling all 8,380 mutants together into one Jurkat population, ensuring a copy number of one plasmid per cell (FIG. 4B). […] These GFP-negative cells were then separated from the remaining GFP-positive population using fluorescence activated cell sorting (FACS). These two populations were then sequenced and the relative abundance of every mutant in both populations compared to provide a log FC value for each mutant sequence. This value indicated how frequently a sequence is observed in the GFP-negative population relative to the GFP-positive population, and therefore how effective a degron it is for that particular IMID compound.

O=C1CCC(N2C(=O)c3ccccc3C2=O)C(=O)N1 (centres unmarked) [A32, 2-(2,6-dioxopiperidin-3-yl)isoindoline-1,3-dione]
A32_logFC (Degron-ID 3102, SEQ ID NO 98, 46F_47Q_49P_50V_52G_53A_54D_55F_67L): 3.4 | A32_logFC (Degron-ID 3105, SEQ ID NO 103, 46F_47Q_49P_50V_52G_53A_54G_55F_67L): 3.381 | A32_logFC (Degron-ID 3106, SEQ ID NO 132, 46F_47Q_49P_50V_52G_53A_54H_55F_67L): 3.266 | A32_logFC (Degron-ID 3107, SEQ ID NO 70, 46F_47Q_49P_50V_52G_53A_54I_55F_67L): 3.527 | A32_logFC (Degron-ID 3108, SEQ ID NO 4, 46F_47Q_49P_50V_52G_53A_54K_55F_67L): 3.962 | A32_logFC (Degron-ID 3109, SEQ ID NO 75, 46F_47Q_49P_50V_52G_53A_54L_55F_67L): 3.497 | A32_logFC (Degron-ID 3110, SEQ ID NO 49, 46F_47Q_49P_50V_52G_53A_54M_55F_67L): 3.582 | A32_logFC (Degron-ID 3111, SEQ ID NO 78, 46F_47Q_49P_50V_52G_53A_54N_55F_67L): 3.484 | A32_logFC (Degron-ID 3112, SEQ ID NO 5, 46F_47Q_49P_50V_52G_53A_54P_55F_67L): 3.872 | A32_logFC (Degron-ID 3116, SEQ ID NO 9, 46F_47Q_49P_50V_52G_53A_54T_55F_67L): 3.794 | A32_logFC (Degron-ID 3132, SEQ ID NO 73, 46F_47R_49D_50I_52G_53A_54P_55F_67L): 3.521 | A32_logFC (Degron-ID 3192, SEQ ID NO 53, 46F_47R_49E_50I_52G_53A_54P_55F_67L): 3.575 | A32_logFC (Degron-ID 3252, SEQ ID NO 104, 46F_47R_49N_50I_52G_53A_54P_55F_67L): 3.38 | A32_logFC (Degron-ID 3312, SEQ ID NO 69, 46F_47R_49P_50I_52G_53A_54P_55F_67L): 3.528 | A32_logFC (Degron-ID 3352, SEQ ID NO 74, 46F_47R_49P_50V_52G_53A_54P_55F_67L): 3.513 | A32_logFC (Degron-ID 3714, SEQ ID NO 136, 46F_47T_49E_50V_52G_53A_54R_55F_67L): 3.256 | A32_logFC (Degron-ID 3799, SEQ ID NO 121, 46F_47T_49P_50I_52G_53A_54Y_55F_67L): 3.31 | A32_logFC (Degron-ID 3821, SEQ ID NO 117, 46F_47T_49P_50V_52G_53A_54C_55F_67L): 3.33 | A32_logFC (Degron-ID 3940, SEQ ID NO 110, 46F_47V_49E_50V_52G_53A_54A_55F_67L): 3.355 | A32_logFC (Degron-ID 3954, SEQ ID NO 139, 46F_47V_49E_50V_52G_53A_54R_55F_67L): 3.254 | A32_logFC (Degron-ID 3955, SEQ ID NO 63, 46F_47V_49E_50V_52G_53A_54S_55F_67L): 3.54 | A32_logFC (Degron-ID 3972, SEQ ID NO 115, 46F_47V_49N_50I_52G_53A_54P_55F_67L): 3.332 | A32_logFC (Degron-ID 4032, SEQ ID NO 77, 46F_47V_49P_50I_52G_53A_54P_55F_67L): 3.493 | A32_logFC (Degron-ID 6496, SEQ ID NO 102, 46L_47C_49P_50I_52G_53F_54T_55C_67L): 3.382 | A32_logFC (Degron-ID 6528, SEQ ID NO 135, 46L_47E_49P_50I_52G_53F_54K_55C_67L): 3.258 | A32_logFC (Degron-ID 6536, SEQ ID NO 101, 46L_47E_49P_50I_52G_53F_54T_55C_67L): 3.382 | A32_logFC (Degron-ID 6539, SEQ ID NO 113, 46L_47E_49P_50I_52G_53F_54Y_55C_67L): 3.343 | A32_logFC (Degron-ID 6700, SEQ ID NO 60, 46L_47Q_49P_50I_52G_53F_54A_55C_67L): 3.551 | A32_logFC (Degron-ID 6703, SEQ ID NO 88, 46L_47Q_49P_50I_52G_53F_54E_55C_67L): 3.442 | A32_logFC (Degron-ID 6706, SEQ ID NO 122, 46L_47Q_49P_50I_52G_53F_54H_55C_67L): 3.305 | A32_logFC (Degron-ID 6707, SEQ ID NO 85, 46L_47Q_49P_50I_52G_53F_54I_55C_67L): 3.453 | A32_logFC (Degron-ID 6708, SEQ ID NO 96, 46L_47Q_49P_50I_52G_53F_54K_55C_67L): 3.401 | A32_logFC (Degron-ID 6710, SEQ ID NO 59, 46L_47Q_49P_50I_52G_53F_54M_55C_67L): 3.553 | A32_logFC (Degron-ID 6713, SEQ ID NO 86, 46L_47Q_49P_50I_52G_53F_54Q_55C_67L): 3.449 | A32_logFC (Degron-ID 6714, SEQ ID NO 111, 46L_47Q_49P_50I_52G_53F_54R_55C_67L): 3.346 | A32_logFC (Degron-ID 6715, SEQ ID NO 66, 46L_47Q_49P_50I_52G_53F_54S_55C_67L): 3.532 | A32_logFC (Degron-ID 6719, SEQ ID NO 81, 46L_47Q_49P_50I_52G_53F_54Y_55C_67L): 3.469 | A32_logFC (Degron-ID 6732, SEQ ID NO 89, 46L_47R_49P_50I_52G_53F_54P_55C_67L): 3.438 | A32_logFC (Degron-ID 6775, SEQ ID NO 76, 46L_47T_49P_50I_52G_53F_54S_55C_67L): 3.495 | A32_logFC (Degron-ID 6776, SEQ ID NO 87, 46L_47T_49P_50I_52G_53F_54T_55C_67L): 3.444 | A32_logFC (Degron-ID 6780, SEQ ID NO 57, 46L_47V_49P_50I_52G_53F_54A_55C_67L): 3.558 | A32_logFC (Degron-ID 6795, SEQ ID NO 48, 46L_47V_49P_50I_52G_53F_54S_55C_67L): 3.587 | A32_logFC (Degron-ID 7840, SEQ ID NO 95, 46L_47Q_49E_50I_52G_53F_54A_55C_67L): 3.402 | A32_logFC (Degron-ID 7848, SEQ ID NO 131, 46L_47Q_49E_50I_52G_53F_54K_55C_67L): 3.267 | A32_logFC (Degron-ID 7853, SEQ ID NO 124, 46L_47Q_49E_50I_52G_53F_54Q_55C_67L): 3.298 | A32_logFC (Degron-ID 7854, SEQ ID NO 52, 46L_47Q_49E_50I_52G_53F_54R_55C_67L): 3.575 | A32_logFC (Degron-ID 7855, SEQ ID NO 51, 46L_47Q_49E_50I_52G_53F_54S_55C_67L): 3.576 | A32_logFC (Degron-ID 7857, SEQ ID NO 99, 46L_47Q_49E_50I_52G_53F_54V_55C_67L): 3.397 | A32_logFC (Degron-ID 7934, SEQ ID NO 128, 46L_47V_49E_50I_52G_53F_54R_55C_67L): 3.277 | A32_logFC (Degron-ID 7935, SEQ ID NO 118, 46L_47V_49E_50I_52G_53F_54S_55C_67L): 3.326
